Measurements as given in patent publication US20060025390A1, “Treatment of hormone allergy and related symptoms and disorders” (priority 2004, published 2006).

What was measured:
[1] = system: serum IgM anti-estrogen antibodies; assay: ELISA binding of IgM estrogen antibodies to different hormones in solid phase; set-up: species or system human; settings: for IgM binding (optical density): hormone in solid phase, 405 nm; for IgM % reaction: relative to estrogen = 100
Description: (§1) The ELISA inhibition method was used to determine specificity and cross-reactivity between different hormones and to ensure the degree of human IgG, IgM and IgE estrogen or progesterone binding to estrogen or progesterone in solid phase. […] 100 μl of sera from three different patients with high IgG, IgM or IgE antibodies against 17-α-hydroxyprogesterone was added to all wells. After shaking and incubation for 1 hr at room temperature, addition of enzyme labeled anti-human IgG, IgM or IgE, repeat of incubation, washing, and addition of substrate, color development was measured at 405 nm. Results were calculated as percentage of anti-17-α-hydroxyprogesterone binding to 17-α-hydroxyprogesterone and other hormones. Also, anti-estrogen binding to estrogen and other hormones in solid phase by progesterone in liquid phase was performed and calculated in a similar manner.
(§2) Human sera containing 17-α-hydroxyprogesterone IgG-, IgM- and IgE-binding antibodies were reacted against progesterone, estrogen, hydrocortisone and cholesterol. In comparison to 100% binding of anti-17-α-hydroxyprogesterone-binding to 17-α-hydroxyprogesterone, the IgG anti-17-α-hydroxyprogesterone-binding to progesterone, estrogen, hydrocortisone and cholesterol was 69-77%, 25-30%, 39-53%, and less than 10% respectively (Table 4). The % binding of serum IgM and IgE anti-17-α-hydroxyprogesterone to 17-1-hydroxyprogesterone, progesterone, estrogen, hydrocortisone and cholesterol was similar to the binding of IgG. This binding of anti-17-α-hydroxyprogesterone to progesterone was the highest, followed by hydrocortisone, then estrogen, to almost no binding with cholesterol. Similar to this, human sera with IgG, IgM and IgE binding antibodies against estrogen were reacted with progesterone, 17-α-hydroxyprogesterone, hydrocortisone and cholesterol, in the presence of estrogen.

[2] = system: serum IgG anti-estrogen antibodies; assay: ELISA binding of IgG estrogen antibodies to different hormones in solid phase; set-up: species or system human; settings: for IgG binding (optical density): hormone in solid phase, 405 nm; for IgG % reaction: relative to estrogen = 100
Description: as §1, §2

[3] = system: women with acute asthma; assay: Symptom relief in women with acute asthma after intradermal progesterone (0 to 10 scale); format: in vivo, human
Description: To test this hypothesis, 142 women with acute asthma were asked to evaluate the severity of their symptoms using an eleven point scale. Ten was assigned to the most severe symptoms, while 0 was assigned to an absence of symptoms. Immediately after assessing their symptoms on this scale, patents were administered 0.5 mg of progesterone by intradermal injection.
Approximately 15 to 30 seconds after the injection was administered, each patient was asked if their symptoms were worse, better, or unchanged. Each patient was also asked to rate their present symptoms on the same 0 to 10 scale.
Of the 142 patients tested 129 (91%) positively responded to the treatment. Using the random effects calculations described in Example 2, this correlates to a less than 0.1% chance that the results are random. Thus the results may be considered highly significant.
Hormone samples may be prepared in any way suitable for the intended administration route. For administration through intradermal injection, samples may be prepared as they were in the studies of Examples 2 and 3. Specifically, the progesterone was formulated from commercially available injectable progesterone. Each ml of the final formulation contained […] of progesterone and 10% benzyl alcohol as a preservative in sesame oil. 0.1 ml was administered per patient intradermally. Estrogen samples were similarly prepared.

[4] = 0.5 mg intradermal, acute asthma
[5] = of 142 women with acute asthma, 0.5 mg intradermal, 15 to 30 seconds after injection

In the case of `CC(=O)[C@H]1CC[C@H]2[C@@H]3CCC4=CC(=O)CC[C@]4(C)[C@H]3CC[C@]12C` [Progesterone, progesterone], the “IgM binding (optical density)” value ([1]; sample 1) is reported as 0.26, the IgM % reaction ([1]; sample 1) is reported as −29% and the “IgM binding (optical density)” value ([1]; sample 2) is reported as 0.65. The IgM % reaction ([1]; sample 2) was −31%, the “IgM binding (optical density)” value ([1]; sample 3) was 0.44 and the IgM % reaction ([1]; sample 3) was −34%. For the same molecule, the “IgG binding (optical density)” value ([2]; sample 1) was 0.35, the IgG % reaction ([2]; sample 1) was −29% and the “IgG binding (optical density)” value ([2]; sample 2) was 0.48. For the same molecule, the IgG % reaction ([2]; sample 2) was −27%, the “IgG binding (optical density)” value ([2]; sample 3) was 0.32 and the IgG % reaction ([2]; sample 3) was −35%. For the same molecule, the “average symptomatic relief, patients who reported some response” value ([3]; 0 to 10 scale) was 5 points, the “average symptomatic relief, all patients” value ([3]; 0 to 10 scale, responding and not responding patients) was 3.4 points and the “average reduction in symptoms relative to maximum individual patient score” value [3, 4] was 62%. The “patients reporting 100% relief of asthma symptoms (%)” value [3, 4] was 28%, the “patients reporting 100% relief of asthma symptoms (number)” value [3, 4] was 40 and the “patients who positively responded to the treatment (%)” value [3, 5] was 91%. For the same molecule, the “patients who positively responded to the treatment (number)” value [3, 5] was 129.
